{"source": "patent US20130296430A1", "about": "“COMPOSITIONS AND METHODS FOR TREATING AUTISM AND AUTISM SPECTRUM DISORDER” (priority 2012, published 2013)", "key": {"children with autism [1]": {"tested_on": "children with autism", "experiment": "12-week placebo-controlled study of NAC: Clinical Global Impression (CGI)", "format": "in vivo, human", "source_text": "The Clinical Global Impression (CGI) rating scales are commonly used measures of symptom severity, treatment response and the efficacy of treatments in treatment studies of patients with mental disorders (Guy, W., 1976, ECDEU Assessment Manual for Psychopharmacology, Rockville, Md., U.S. Department of Health, Education, and Welfare). The Clinical Global Impression-Severity scale (CGI-S) is a 7-point scale that requires the clinician to rate the severity of the patient's illness at the time of assessment, relative to the clinician's past experience with patients who have the same diagnosis. Considering total clinical experience, a patient is assessed on severity of mental illness at the time of rating 1=normal, not at all ill; 2=borderline mentally ill; 3=mildly ill; 4=moderately ill; 5=markedly ill; 6=severely ill; or 7=extremely ill.\n(§1) A 12-week, double-blind randomized, placebo-controlled study of NAC in children with autism was conducted in the Autism & Developmental Disabilities Clinic in the Division of Child & Adolescent Psychiatry at Stanford University Medical Center. The recruitment period started in March 2009 and ended in September 2010. Subjects with and without mental retardation were included. After obtaining informed consent, subjects were screened and inclusion and exclusion criteria were assessed. No changes in eligibility criteria were applied throughout the study. This investigation was approved by the institutional review board at Stanford University School of Medicine. An investigational new drug application (IND#100905) was filed with the Food and Drug Administration, and the study was registered in National Institutes of Health at ClinicalTrials.gov (identifier number NCT00627705).\n(§2) After the screening phase, baseline measures were obtained from subjects continuing to meet inclusion and exclusion criteria. Subjects were then randomized to either placebo or active based on age and gender. As NAC is a nutritional supplement, the quality control is predictably variable and therefore purity is not as stringent as prescription medications. Therefore, in the present study, the stability of the compound was ascertained and the integrity of the active agent was protected by packaging each NAC doses in individual pockets. The active compound and matching placebo were provided by BioAdvantex Pharma, Inc. (Mississauga, Ontario, Canada). […] Subjects randomized to the active drug were initiated at the dose of 900 mg every day for the first 4 weeks, then 900 mg twice daily for 4 weeks and 900 mg three times daily for 4 weeks. (This dose selection was based on previously published studies for other psychiatric conditions (Grant, J. et al., Arch Gen Psychiatry, 66:468-475 (2009); Berk, M. et al., Biol Psychiatry, 64:361-368 (2008); Berk, M. et al., Bio Psychiatry, 64:468-475 (2008)) and the previous experience of our group in studies of children with cystic fibrosis). Alternatively, subjects were initiated at the dose of 900 mg per day, 1,800 mg per day, or 2,700 mg per day of NAC. Alternatively, the subjects were initiated at the dose ranging from 900 mg per day to 2,700 mg per day of NAC.\n(§3) If a subject could not tolerate a specific dose, s/he would be maintained at the highest tolerated dose. Subjects were evaluated at baseline, week 4, week 8 and week 12. The Aberrant Behavioral Checklist (ABC) (Aman, M. et al., Am J Ment Defic. 89:492-502 (1985)), the Clinical Global Impressions (CGI) (Guy, W., ECDEU Assessment Manual for Psychopharmacology, Rockville, Md., U.S. Department of Health, Education, and Welfare (1976)), and the Dosage Record and Treatment Emergent Symptom Scale (DOTES) (Guy, W., 1976, ECDEU Assessment Manual for Psychopharmacology, Rockville, Md., U.S. Department of Health, Education, and Welfare) were obtained in each visit. […]"}, "[2]": {"details": "cited from earlier work"}, "children with autism [3]": {"tested_on": "children with autism", "experiment": "12-week double-blind randomized placebo-controlled study of NAC: Aberrant Behavior Checklist (ABC)", "format": "in vivo, human", "source_text": "The Aberrant Behavior Checklist (ABC) is a standardized scale comprising 58 items for assessing problem behavior in subjects with mental retardation and developmental disabilities (Aman, M. et al., Am J Ment Defic. 89:492-502 (1985)). The checklist is empirically derived from ratings on approximately 1000 subjects, and the items resolve into five subscales: irritability, lethargy/social withdrawal, stereotypic behavior, hyperactivity, and inappropriate speech. High scores indicate more severe behavioral symptoms.\nas §1, §2\nas §3, with “visit. Additional secondary measures were obtained at baseline and at week 12 and included the social responsiveness scale (SRS) (Constantino, J. et al., J. Dev Behav Pediatr., 21:2-11 (2000); Constantino, J. et al., J Autism Dev Disord., 33:427-433 (2003)), and the repetitive behavior scale-revised (RBS-R) (Bodfish, J. et al., The Repetitive Behavior Scale: A test manual (1998)).” for “visit.”"}, "[4]": {"details": "Baseline (before treatment), NAC group n = 15"}, "[5]": {"details": "standardized mean difference NAC vs placebo at Week 12"}, "[6]": {"details": "all randomized participants, p>0.100"}}, "note": "“Also recorded” adds a separate entry of the source."}
{"compound": "CC(=O)N[C@@H](CS)C(=O)O", "note": "[NAC, N-acetylcysteine]", "values": [{"measurement": "CGI severity, Mean (SD)", "setting": "children with autism [1]; [4]", "value": "5.1 (0.7)"}, {"measurement": "CGI improvement, Mean (SD)", "setting": "children with autism [1]; Week 12, NAC n = 14", "value": "2.9 (1.1)"}, {"measurement": "CGI severity, Mean (SD)", "setting": "children with autism [1]; Week 12, NAC n = 14, 7-point scale", "value": "4.5 (0.8)"}, {"measurement": "CGI-S global severity, pattern NAC vs placebo", "setting": "children with autism [1]; all randomized participants, p=0.170", "value": "no significant differences"}, {"measurement": "CGI-I improvement, pattern NAC vs placebo", "setting": "children with autism [1]; all randomized participants, p=0.449", "value": "no significant differences"}, {"measurement": "CGI improvement, Cohen's d", "setting": "children with autism [1]; [5]", "value": ".30"}, {"measurement": "CGI severity, Cohen's d", "setting": "children with autism [1]; [5]", "value": ".47"}, {"measurement": "solubility relative to cystine", "setting": "[2]; compared with the stable cysteine disulfide, cystine", "value": "much more soluble"}, {"measurement": "stability relative to cysteine", "setting": "[2]; more stable than cysteine", "value": "about 10 times"}, {"measurement": "ABC hyperactivity, Mean (SD)", "setting": "children with autism [3]; [4]", "value": "23.4 (9.0)"}, {"measurement": "ABC inappropriate speech, Mean (SD)", "setting": "children with autism [3]; [4]", "value": "4.9 (3.2)"}, {"measurement": "ABC irritability, Mean (SD)", "setting": "children with autism [3]; [4]", "value": "16.9 (7.9)"}, {"measurement": "ABC lethargy, Mean (SD)", "setting": "children with autism [3]; [4]", "value": "15.2 (9.5)"}, {"measurement": "ABC stereotypy, Mean (SD)", "setting": "children with autism [3]; [4]", "value": "9.1 (5.5)"}, {"measurement": "ABC total, Mean (SD)", "setting": "children with autism [3]; [4]", "value": "69.7 (24.7)"}, {"measurement": "ABC hyperactivity, Mean (SD)", "setting": "children with autism [3]; Week 12, NAC n = 14", "value": "12.4 (11.4)"}, {"measurement": "ABC inappropriate speech, Mean (SD)", "setting": "children with autism [3]; Week 12, NAC n = 14", "value": "2.5 (2.6)"}, {"measurement": "ABC irritability, Mean (SD)", "setting": "children with autism [3]; Week 12, NAC n = 14", "value": "7.2 (5.7)"}, {"measurement": "ABC lethargy, Mean (SD)", "setting": "children with autism [3]; Week 12, NAC n = 14", "value": "11.0 (9.4)"}, {"measurement": "ABC stereotypy, Mean (SD)", "setting": "children with autism [3]; Week 12, NAC n = 14", "value": "5.6 (5.7)"}, {"measurement": "ABC total, Mean (SD)", "setting": "children with autism [3]; Week 12, NAC n = 14, 900 mg daily 4 wk, twice daily 4 wk, three times daily 4 wk, high scores = more severe", "value": "38.7 (24.1)"}, {"measurement": "ABC-Irritability, treatment effect (Group x Time)", "setting": "children with autism [3]; all randomized participants, NAC vs placebo, effects beginning in week 4, continuing through week 8 and 12, p<0.001", "value": "significantly improved irritability; also recorded: significant behavioral improvements"}, {"measurement": "ABC-Total, treatment effect (Group x Time)", "setting": "children with autism [3]; all randomized participants, NAC vs placebo, from week 4 through week 12, p=0.010", "value": "significant effects; also recorded: significant behavioral improvements"}, {"measurement": "ABC-Stereotypy, treatment effect", "setting": "children with autism [3]; all randomized participants, NAC vs placebo, p=0.096", "value": "marginally significant improvement"}, {"measurement": "ABC hyperactivity subscale, treatment effect", "setting": "children with autism [3]; [6]", "value": "no significant treatment effects"}, {"measurement": "ABC inappropriate speech subscale, treatment effect", "setting": "children with autism [3]; [6]", "value": "no significant treatment effects"}, {"measurement": "ABC lethargy subscale, treatment effect", "setting": "children with autism [3]; [6]", "value": "no significant treatment effects"}, {"measurement": "ABC inappropriate speech, Cohen's d", "setting": "children with autism [3]; [5]", "value": ".35"}, {"measurement": "ABC irritability, Cohen's d", "setting": "children with autism [3]; [5]", "value": ".72"}, {"measurement": "ABC lethargy, Cohen's d", "setting": "children with autism [3]; [5]", "value": "−.32"}, {"measurement": "ABC stereotypy, Cohen's d", "setting": "children with autism [3]; [5]", "value": ".37"}, {"measurement": "ABC total, Cohen's d", "setting": "children with autism [3]; [5]", "value": ".63"}]}
